#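 Compound exposure: 48 hours, 5 concentrations, 96-well plates. GI50: concentration for 50% inhibition of growth. TGI denotes the concentration required for complete inhibition of growth.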
# What was measured:
# Assay in all cases: NCI anticancer screen, dose series, 48 h
# HCT-15 colon = system: HCT-15 colon
# A549 NSCLC = system: A549 NSCLC
# UACC-62 melanoma = system: UACC-62 melanoma
# SK-OV-3 ovarian = system: SK-OV-3 ovarian
# HOP-92 NSCLC = system: HOP-92 NSCLC
# HCC-2998 colon = system: HCC-2998 colon
# HT29 colon = system: HT29 colon
# M14 melanoma = system: M14 melanoma
# SNB-75 CNS = system: SNB-75 CNS
# SF-268 CNS = system: SF-268 CNS
# NCI-H226 lung = system: NCI-H226 lung
# K-562 leukemia = system: K-562 leukemia
# SNB-19 CNS = system: SNB-19 CNS
# OVCAR-8 ovarian = system: OVCAR-8 ovarian
# HCT-116 colon = system: HCT-116 colon
# LOX IMVI melanoma = system: LOX IMVI melanoma
# SK-MEL-28 melanoma = system: SK-MEL-28 melanoma
# SR leukemia = system: SR leukemia
# TK-10 renal = system: TK-10 renal
# OVCAR-3 ovarian = system: OVCAR-3 ovarian
# MALME-3M melanoma = system: MALME-3M melanoma
# MDA-MB-435 = system: MDA-MB-435
# NCI/ADR-RES ovarian = system: NCI/ADR-RES ovarian
# SN12C renal = system: SN12C renal
# T-47D breast = system: T-47D breast
# U251 CNS = system: U251 CNS
# HS 578T breast = system: HS 578T breast
# SW-620 colon = system: SW-620 colon
# COLO 205 colon = system: COLO 205 colon
# EKVX NSCLC = system: EKVX NSCLC
# OVCAR-5 ovarian = system: OVCAR-5 ovarian
# SF-539 CNS = system: SF-539 CNS
# RXF 393 renal = system: RXF 393 renal
# UACC-257 melanoma = system: UACC-257 melanoma
# BT-549 breast = system: BT-549 breast
# NCI-H23 lung = system: NCI-H23 lung
# SF-295 CNS = system: SF-295 CNS
# KM12 colon = system: KM12 colon
# A498 renal = system: A498 renal
# HL-60(TB) leukemia = system: HL-60(TB) leukemia
# NCI-H522 lung = system: NCI-H522 lung
# OVCAR-4 ovarian = system: OVCAR-4 ovarian
# PC-3 prostate = system: PC-3 prostate
# MOLT-4 leukemia = system: MOLT-4 leukemia
# IGROV1 ovarian = system: IGROV1 ovarian
# 786-0 renal = system: 786-0 renal
# MCF7 breast = system: MCF7 breast
# CCRF-CEM leukemia = system: CCRF-CEM leukemia
# NCI-H460 lung = system: NCI-H460 lung
# ACHN renal = system: ACHN renal
# MDA-MB-231 breast = system: MDA-MB-231 breast
# RPMI-8226 leukemia = system: RPMI-8226 leukemia
# DU-145 prostate = system: DU-145 prostate
# HOP-62 NSCLC = system: HOP-62 NSCLC
# SK-MEL-5 melanoma = system: SK-MEL-5 melanoma
# SK-MEL-2 melanoma = system: SK-MEL-2 melanoma
# CAKI-1 renal = system: CAKI-1 renal
# UO-31 renal = system: UO-31 renal
structure (smiles),measurement,setting,value
CC(=C(c1ccc(OCCN(C)C)cc1)c1ccc(OCCN(C)C)cc1)c1ccc(Cl)cc1,GI50,HCT-15 colon,625 nM
same,TGI,HCT-15 colon,1360 nM
same,GI50,A549 NSCLC,1040 nM
same,TGI,A549 NSCLC,4140 nM
same,GI50,UACC-62 melanoma,576 nM
same,TGI,UACC-62 melanoma,1130 nM
same,GI50,SK-OV-3 ovarian,4800 nM
same,TGI,SK-OV-3 ovarian,9530 nM
same,GI50,HOP-92 NSCLC,740 nM
same,TGI,HOP-92 NSCLC,3040 nM
same,GI50,HCC-2998 colon,617 nM
same,TGI,HCC-2998 colon,1310 nM
same,GI50,HT29 colon,615 nM
same,TGI,HT29 colon,1490 nM
same,GI50,M14 melanoma,614 nM
same,TGI,M14 melanoma,1240 nM
same,GI50,SNB-75 CNS,2580 nM
same,TGI,SNB-75 CNS,7600 nM
same,GI50,SF-268 CNS,1600 nM
same,TGI,SF-268 CNS,6210 nM
same,GI50,NCI-H226 lung,4440 nM
same,TGI,NCI-H226 lung,10000 nM
same,GI50,K-562 leukemia,770 nM
same,TGI,K-562 leukemia,7710 nM
same,GI50,SNB-19 CNS,1160 nM
same,TGI,SNB-19 CNS,4360 nM
same,GI50,OVCAR-8 ovarian,1170 nM
same,TGI,OVCAR-8 ovarian,4360 nM
same,GI50,HCT-116 colon,544 nM
same,TGI,HCT-116 colon,1110 nM
same,GI50,LOX IMVI melanoma,542 nM
same,TGI,LOX IMVI melanoma,1030 nM
same,GI50,SK-MEL-28 melanoma,605 nM
same,TGI,SK-MEL-28 melanoma,1130 nM
same,GI50,SR leukemia,638 nM
same,TGI,SR leukemia,3290 nM
same,GI50,TK-10 renal,4770 nM
same,TGI,TK-10 renal,9680 nM
same,GI50,OVCAR-3 ovarian,756 nM
same,TGI,OVCAR-3 ovarian,2010 nM
same,GI50,MALME-3M melanoma,570 nM
same,TGI,MALME-3M melanoma,1080 nM
same,GI50,MDA-MB-435,577 nM
same,TGI,MDA-MB-435,1120 nM
same,GI50,NCI/ADR-RES ovarian,951 nM
same,TGI,NCI/ADR-RES ovarian,2950 nM
same,GI50,SN12C renal,1920 nM
same,TGI,SN12C renal,5740 nM
same,GI50,T-47D breast,633 nM
same,TGI,T-47D breast,1410 nM
same,GI50,U251 CNS,631 nM
same,TGI,U251 CNS,1460 nM
same,GI50,HS 578T breast,1370 nM
same,TGI,HS 578T breast,5140 nM
same,GI50,SW-620 colon,569 nM
same,TGI,SW-620 colon,1170 nM
same,GI50,COLO 205 colon,621 nM
same,TGI,COLO 205 colon,1270 nM
same,GI50,EKVX NSCLC,1660 nM
same,TGI,EKVX NSCLC,6110 nM
same,GI50,OVCAR-5 ovarian,1340 nM
same,TGI,OVCAR-5 ovarian,5260 nM
same,GI50,SF-539 CNS,566 nM
same,TGI,SF-539 CNS,1100 nM
same,GI50,RXF 393 renal,706 nM
same,TGI,RXF 393 renal,2080 nM
same,GI50,UACC-257 melanoma,632 nM
same,TGI,UACC-257 melanoma,1270 nM
same,GI50,BT-549 breast,3170 nM
same,TGI,BT-549 breast,7780 nM
same,GI50,NCI-H23 lung,2600 nM
same,TGI,NCI-H23 lung,7170 nM
same,GI50,SF-295 CNS,653 nM
same,TGI,SF-295 CNS,1380 nM
same,GI50,KM12 colon,1450 nM
same,TGI,KM12 colon,3560 nM
same,GI50,A498 renal,3200 nM
same,TGI,A498 renal,7810 nM
same,GI50,HL-60(TB) leukemia,708 nM
same,TGI,HL-60(TB) leukemia,1640 nM
same,GI50,NCI-H522 lung,756 nM
same,TGI,NCI-H522 lung,2100 nM
same,GI50,OVCAR-4 ovarian,1010 nM
same,TGI,OVCAR-4 ovarian,3100 nM
same,GI50,PC-3 prostate,932 nM
same,TGI,PC-3 prostate,3260 nM
same,GI50,MOLT-4 leukemia,713 nM
same,TGI,MOLT-4 leukemia,1810 nM
same,GI50,IGROV1 ovarian,826 nM
same,TGI,IGROV1 ovarian,2220 nM
same,GI50,786-0 renal,591 nM
same,TGI,786-0 renal,1160 nM
same,GI50,MCF7 breast,508 nM
same,TGI,MCF7 breast,1020 nM
same,GI50,CCRF-CEM leukemia,657 nM
same,TGI,CCRF-CEM leukemia,1840 nM
same,GI50,NCI-H460 lung,756 nM
same,TGI,NCI-H460 lung,1760 nM
same,GI50,ACHN renal,709 nM
same,TGI,ACHN renal,1570 nM
same,GI50,MDA-MB-231 breast,687 nM
same,TGI,MDA-MB-231 breast,1560 nM
same,GI50,RPMI-8226 leukemia,651 nM
same,TGI,RPMI-8226 leukemia,1580 nM
same,GI50,DU-145 prostate,1380 nM
same,TGI,DU-145 prostate,4900 nM
same,GI50,HOP-62 NSCLC,3300 nM
same,TGI,HOP-62 NSCLC,8160 nM
same,GI50,SK-MEL-5 melanoma,597 nM
same,TGI,SK-MEL-5 melanoma,1090 nM
same,GI50,SK-MEL-2 melanoma,2100 nM
same,TGI,SK-MEL-2 melanoma,4820 nM
same,GI50,CAKI-1 renal,652 nM
same,TGI,CAKI-1 renal,1690 nM
same,GI50,UO-31 renal,847 nM
same,TGI,UO-31 renal,2650 nM

# From PubChem BioAssay (NCI)
